According to US20030059852A1, “Modulation of integrin-mediated signal transduction” (COR Therapeutics, Inc., priority 1995, published 2003):

Experiments:
GP IIIa (β3) = experiment: In vivo tyrosine phosphorylation of GPIIIa, 2-D gel electrophoresis and anti-phosphotyrosine immunoblotting; type: cell-based, human
Protocol: Blood from healthy volunteers was collected into ⅙^th volume of 85 mM sodium citrate, 111 mM dextrose and 71 mM citric acid supplemented with 50 ng/ml PGI2 and 0.6 U/ml apyrase. After centrifugation of the blood at 160× g for 20 minutes the platelet rich plasma was removed and subjected to further centrifugation at 730× g for 10 minutes to sediment the platelets. Platelets were then resuspended in 13 mM trisodium citrate, 120 mM NaCl and 30 mM dextrose pH 7.0 and washed x 2 with this buffer. The platelets were then resuspended in 12 mM NaHCO3, 138 mM NaCl, 5.5 mM dextrose, 2.9 mM KCl, 10 mM Hepes, 1 mM CaCl2, 0.3 U/ml apyrase and allowed to recover for 1 hour at 37° C. […]
330 μl of 3× non-reducing sample buffer containing 1 mM sodium vanadate was added to 1 ml of control or thrombin-aggregated platelets. […] This membrane was then immunoblotted with anti-phosphotyrosine antibodies and the relative amount of phosphorylated GPIIIa was determined by densitometry for both control and thrombin-aggregated samples. […]
However, a three to six fold enhancement of phosphorylation of GPIIIa was observed when platelets were lysed in a high concentration of SDS and the proteins immediately separated by 2-D gel electrophoresis prior to transfer to a nitrocellulose membrane, and immunoblotting to detect phosphorylated proteins with phosphotyrosine antibodies and with a GPIIIa antibody to quantitate GPIIIa. […]

platelets = experiment: Platelet aggregation induced by agonists; type: cell-based, human
Protocol: Blood from healthy volunteers was collected into ⅙^th volume of 85 mM sodium citrate, 111 mM dextrose and 71 mM citric acid supplemented with 50 ng/ml PGI2 and 0.6 U/ml apyrase. After centrifugation of the blood at 160× g for 20 minutes the platelet rich plasma was removed and subjected to further centrifugation at 730× g for 10 minutes to sediment the platelets. Platelets were then resuspended in 13 mM trisodium citrate, 120 mM NaCl and 30 mM dextrose pH 7.0 and washed x 2 with this buffer. The platelets were then resuspended in 12 mM NaHCO3, 138 mM NaCl, 5.5 mM dextrose, 2.9 mM KCl, 10 mM Hepes, 1 mM CaCl2, 0.3 U/ml apyrase and allowed to recover for 1 hour at 37° C. Resting platelets were activated by the addition of 1 nM thrombin with stirring until aggregates were visible (1-3 minutes).
Additional experiments have been performed using a 2-D gel electrophoresis protocol and have yielded further information on the tyrosine phosphorylation of GPIIIa (FIG. 3). GPIIIa tyrosine phosphorylation can be observed in platelets induced to aggregate using agonists other than thrombin. […] In all cases platelet aggregation appears to be a prerequisite for GPIIIa tyrosine phosphorylation.

## Nc1ncnc2c1ncn2[C@@H]1O[C@H](COP(=O)(O)OP(=O)(O)O)[C@@H](O)[C@H]1O [ADP]
GP IIIa (β3); 2-D gel electrophoresis protocol
  GPIIIa tyrosine phosphorylation: no increase
GP IIIa (β3); platelets stimulated with the indicated agonist, 2-D gel, anti-phosphotyrosine immunoblotting
  β3 Phosphorylation: no
platelets
  platelet aggregation: does not induce platelet aggregation
platelets; platelets stimulated with the indicated agonist
  Aggregation: no
